According to patent US20210330696A1, “A HIGH CAPACITY PLATFORM FOR IMMUNOGENIC CANCER CELL DEATH” (priority 2018, published 2021):
≈ marks a conversion by molar mass, not a printed value.

Tests used:
[1] = cited from earlier work
[2] = mouse, in vivo; cited from earlier work
[3] = test system: glioblastoma cells; conditions: 2 h after injection; cited from earlier work
[4] = test system: cancer cells; conditions: cited from earlier work
[5] = test system: DNA; conditions: cited from earlier work
[6] = test system: 4T1 tumor; assay: 19F MRI of 4T1 tumor infiltration by myeloid cells (V-Sense); type: in vivo; conditions: 48 h post intratumoral injection, compared to PBS
Experimental: FIG. 17. MR imaging of 4T1 tumor infiltration by myeloid cells. The perfluorocarbon emulsion V-Sense was injected intravascularly and carrier macrophages were imaged by 19F MRI 48 h post control or IL-12 intraturrioral injection.
V-sense is a commercial ^19F-perfluorocarbon emulsion used to track macrophage infiltration into inflammatory tissues. Ahrens et al. (2011) successfully quantified V-sense in inflamed tissues of the central nervous system in an […] model of allergic encephalomyelitis, which they correlated with immunohistochemistry to confirm co-localization of V-sense emulsion droplets and macrophages. Hitchens et al. (2011) detected V-sense labeled macrophages in a model of cardiac allograft rejection. In FIG. 12, the ^19F contrast in tumors is shown based on infiltration of V-sense containing macrophages. In vitro fluorescent imaging confirmed V-sense (red) uptake by RAW macrophages (FIG. 15). […] The color spectrum indicates the concentration of V-sense, which is analogous to phagocytic myeloid cell density.

[7] = test system: tumor immunocytes; assay: tumor immunocytes by flow cytometry after IL-12; type: in vivo; conditions: 24 h after treatment
Excerpt: FIGS. 21A-B. Tumor immunocytes. A) Flow cytometry dot blots showing gating for myeloid and T cell populations. B) Percent immunocytes in control vs IL-12 treated tumors.
Tumor phenotyping. Flow cytometry and immunohistochemistry are used to characterize PD-L1 expression and the presence of effector and regulatory T cells, myeloid and DC, vascularity and stromal cells in tumors and lymphatic tissue. Immunosuppressive regulators in the tumor include T regulatory (Treg) and […] (MDSC). Tregs (CD4^+/FoxP3^+) and MDSC [CD11b^+/Gr-1(Ly6-CIG)^+] suppress effective antitumor immune responses. CD4^+ and CD8^+ T cells are the primary adaptive immune cell mediators within the tumor and the proportion of T cell subsets and DC present in the tumor plays a critical role in tumor rejection. […] Single cell suspensions are prepared from tumors and spleen. After Fc receptor blockade with anti-CD16/CD32 antibodies in 1% mouse serum/1 mM EDTA, cells are permeabilized for intracellular staining or stained directly with antibodies identifying discrete immune cell populations, as described below. […] Specificity of binding to naïve or memory/effector cells is evaluated using fluorescent antibodies that recognize CD45RA, CCR7, and FOXP3. […] Apoptotic tumor cells are detected using DeadEnd Colorimetric TUNEL System, and proliferating cells will be identified using Ki-67. […]

COc1cccc2c1C(=O)c1c(O)c3c(c(O)c1C2=O)C[C@@](O)(C(=O)CO)C[C@@H]3O[C@H]1C[C@H](N)[C@H](O)[C@H](C)O1 [DOX, doxorubicin]
IC50 [1]: 0.08 µg/mL (≈ 0.147 µM)
MTD [2]: 6 mg/kg

O=c1[nH]c(=O)n([C@@H]2O[C@H](CO)[C@@H](O)[C@@H]2F)cc1[124I] [^124I-FIAU, ^124I-2′-fluoro-2′-deoxy-5-iodo-1-beta-D-arabinofurariosyluracil]
increase in reporter expression [3]: 28 fold

N.N.[Cl][Pt][Cl] [cisplatin, cis-diamminedichloroplatinum (II)]
number of ICD hallmarks stimulated [4]: 2
DNA adduct formation relative to oxaliplatin [5]: 10 times

B1: IL-12: Proinflammatory Th1 cytokine interleukin-12 (protein, UniProt P29459 23-219; P29460 23-328, looked up)
Interleukin-12 subunit alpha: RNLPVATPDPGMFPCLHHSQNLLRAVSNMLQKARQTLEFYPCTSEEIDHEDITKDKTSTVEACLPLELTKNESCLNSRETSFITNGSCLASRKTSFMMALCLSSIYEDLKMYQVEFKTMNAKLLMDPKRQIFLDQNMLAVIDELMQALNFNSETVPQKSSLEEPDFYKTKIKLCILLHAFRIRAVTIDRVMSYLNAS
Interleukin-12 subunit beta: IWELKKDVYVVELDWYPDAPGEMVVLTCDTPEEDGITWTLDQSSEVLGSGKTLTIQVKEFGDAGQYTCHKGGEVLSHSLLLLHKKEDGIWSTDILKDQKEPKNKTFLRCEAKNYSGRFTCWWLTTISTDLTFSVKSSRGSSDPQGVTCGAATLSAERVRGDNKEYEYSVECQEDSACPAAEESLPIEVMVDAVHKLKYENYTSSFFIRDIIKPDPPKNLQLKPLKNSRQVEVSWEYPDTWSTPHSYFSLTFCVQVQGKSKREKKDRVFTDKTSATVICRKNASISVRAQDRYYSSSWSEWASVPCS
frequency of phagocytic cells within the tumor periphery [6]: increased the frequency of phagocytic cells
CD4+ and CD8+ T cells in the tumor [7]: increases CD4^+ and CD8^+ T cells
MDSC in the tumor [7]: decreases MDSC
